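Cells were grown in 96-well plates and exposed to each compound for 48 hours at five concentrations; endpoints were interpolated linearly between bracketing concentrations, or set to the highest concentration if not reached. GI50 marks 50% less growth. TGI denotes the concentration required for complete inhibition of growth.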
Experiments:
Experiment in all cases: NCI tumour cell line growth inhibition, 48 h
ACHN renal = test system: ACHN renal
MDA-MB-231 breast = test system: MDA-MB-231 breast
MDA-MB-468 breast = test system: MDA-MB-468 breast
RPMI-8226 leukemia = test system: RPMI-8226 leukemia
786-0 renal = test system: 786-0 renal
HL-60(TB) leukemia = test system: HL-60(TB) leukemia
CCRF-CEM leukemia = test system: CCRF-CEM leukemia
SK-OV-3 ovarian = test system: SK-OV-3 ovarian
MALME-3M melanoma = test system: MALME-3M melanoma
HOP-92 NSCLC = test system: HOP-92 NSCLC
HOP-62 NSCLC = test system: HOP-62 NSCLC
NCI-H460 lung = test system: NCI-H460 lung
SK-MEL-2 melanoma = test system: SK-MEL-2 melanoma
SK-MEL-28 melanoma = test system: SK-MEL-28 melanoma
SNB-19 CNS = test system: SNB-19 CNS
COLO 205 colon = test system: COLO 205 colon
RXF 393 renal = test system: RXF 393 renal
OVCAR-3 ovarian = test system: OVCAR-3 ovarian
SW-620 colon = test system: SW-620 colon
MOLT-4 leukemia = test system: MOLT-4 leukemia
UACC-62 melanoma = test system: UACC-62 melanoma
OVCAR-8 ovarian = test system: OVCAR-8 ovarian
HS 578T breast = test system: HS 578T breast
SF-295 CNS = test system: SF-295 CNS
U251 CNS = test system: U251 CNS
OVCAR-5 ovarian = test system: OVCAR-5 ovarian
KM12 colon = test system: KM12 colon
SK-MEL-5 melanoma = test system: SK-MEL-5 melanoma
SR leukemia = test system: SR leukemia
MDA-MB-435 = test system: MDA-MB-435
K-562 leukemia = test system: K-562 leukemia
NCI-H522 lung = test system: NCI-H522 lung
A549 NSCLC = test system: A549 NSCLC
NCI-H23 lung = test system: NCI-H23 lung
UACC-257 melanoma = test system: UACC-257 melanoma
T-47D breast = test system: T-47D breast
SF-268 CNS = test system: SF-268 CNS
TK-10 renal = test system: TK-10 renal
CAKI-1 renal = test system: CAKI-1 renal
HCT-15 colon = test system: HCT-15 colon
PC-3 prostate = test system: PC-3 prostate
BT-549 breast = test system: BT-549 breast
HT29 colon = test system: HT29 colon
SNB-75 CNS = test system: SNB-75 CNS
MCF7 breast = test system: MCF7 breast
HCC-2998 colon = test system: HCC-2998 colon
NCI-H226 lung = test system: NCI-H226 lung
M14 melanoma = test system: M14 melanoma
EKVX NSCLC = test system: EKVX NSCLC
SN12C renal = test system: SN12C renal
OVCAR-4 ovarian = test system: OVCAR-4 ovarian
SF-539 CNS = test system: SF-539 CNS
LOX IMVI melanoma = test system: LOX IMVI melanoma
UO-31 renal = test system: UO-31 renal
DU-145 prostate = test system: DU-145 prostate
A498 renal = test system: A498 renal
IGROV1 ovarian = test system: IGROV1 ovarian

## O=C1Nc2cc(Cl)ccc2/C1=C/c1ccc(OCc2ccc(Br)cc2F)cc1
ACHN renal
  GI50: 1.92 µM
  TGI: 3.83 µM
MDA-MB-231 breast
  GI50: 2.33 µM
  TGI: 5.92 µM
MDA-MB-468 breast
  GI50: 2.24 µM
  TGI: 4.65 µM
RPMI-8226 leukemia
  GI50: 4.41 µM
  TGI: 18.1 µM
786-0 renal
  GI50: 1.9 µM
  TGI: 3.5 µM
HL-60(TB) leukemia
  GI50: 17.7 µM
  TGI: 53.6 µM
CCRF-CEM leukemia
  GI50: 3.86 µM
  TGI: 14.6 µM
SK-OV-3 ovarian
  GI50: 3.81 µM
  TGI: 13.5 µM
MALME-3M melanoma
  GI50: 1.82 µM
  TGI: 3.83 µM
HOP-92 NSCLC
  GI50: 2.28 µM
  TGI: 6.17 µM
HOP-62 NSCLC
  GI50: 1.9 µM
  TGI: 4.21 µM
NCI-H460 lung
  GI50: 2.02 µM
  TGI: 3.74 µM
SK-MEL-2 melanoma
  GI50: 7.22 µM
  TGI: 21.7 µM
SK-MEL-28 melanoma
  GI50: 2.18 µM
  TGI: 4.92 µM
SNB-19 CNS
  GI50: 2.3 µM
  TGI: 5.72 µM
COLO 205 colon
  GI50: 4.03 µM
  TGI: 17 µM
RXF 393 renal
  GI50: 2.73 µM
  TGI: 9.28 µM
OVCAR-3 ovarian
  GI50: 2.49 µM
  TGI: 5.08 µM
SW-620 colon
  GI50: 2.02 µM
  TGI: 4.18 µM
MOLT-4 leukemia
  GI50: 3.98 µM
  TGI: 14.4 µM
UACC-62 melanoma
  GI50: 1.82 µM
  TGI: 3.8 µM
OVCAR-8 ovarian
  GI50: 3.31 µM
  TGI: 10.4 µM
HS 578T breast
  GI50: 2.05 µM
  TGI: 6.6 µM
SF-295 CNS
  GI50: 2.07 µM
  TGI: 4.36 µM
U251 CNS
  GI50: 1.92 µM
  TGI: 3.62 µM
OVCAR-5 ovarian
  GI50: 8.24 µM
  TGI: 34.3 µM
KM12 colon
  GI50: 3.54 µM
  TGI: 11.5 µM
SK-MEL-5 melanoma
  GI50: 3.47 µM
  TGI: 12.3 µM
SR leukemia
  GI50: 2.07 µM
  TGI: 4.45 µM
MDA-MB-435
  GI50: 2.87 µM
  TGI: 8.54 µM
K-562 leukemia
  GI50: 4.03 µM
  TGI: 17 µM
NCI-H522 lung
  GI50: 1.99 µM
  TGI: 4.89 µM
A549 NSCLC
  GI50: 2.08 µM
  TGI: 4.35 µM
NCI-H23 lung
  GI50: 1.79 µM
  TGI: 4.08 µM
UACC-257 melanoma
  GI50: 9.42 µM
  TGI: 26.3 µM
T-47D breast
  GI50: 4.19 µM
  TGI: 18.3 µM
SF-268 CNS
  GI50: 2.67 µM
  TGI: 6.35 µM
TK-10 renal
  GI50: 2.73 µM
  TGI: 7.15 µM
CAKI-1 renal
  GI50: 1.7 µM
  TGI: 3.46 µM
HCT-15 colon
  GI50: 3.4 µM
  TGI: 13 µM
PC-3 prostate
  GI50: 1.91 µM
  TGI: 4.46 µM
BT-549 breast
  GI50: 1.92 µM
  TGI: 4.26 µM
HT29 colon
  GI50: 4.69 µM
  TGI: 19.5 µM
SNB-75 CNS
  GI50: 2.19 µM
  TGI: 7 µM
MCF7 breast
  GI50: 2.11 µM
  TGI: 14.2 µM
HCC-2998 colon
  GI50: 15.4 µM
  TGI: 37.7 µM
NCI-H226 lung
  GI50: 2.07 µM
  TGI: 5.53 µM
M14 melanoma
  GI50: 2.91 µM
  TGI: 9.02 µM
EKVX NSCLC
  GI50: 3.69 µM
  TGI: 17.1 µM
SN12C renal
  GI50: 5.31 µM
  TGI: 19.6 µM
OVCAR-4 ovarian
  GI50: 1.9 µM
  TGI: 3.98 µM
SF-539 CNS
  GI50: 1.92 µM
  TGI: 3.59 µM
LOX IMVI melanoma
  GI50: 1.73 µM
  TGI: 3.61 µM
UO-31 renal
  GI50: 1.55 µM
  TGI: 4.65 µM
DU-145 prostate
  GI50: 3.39 µM
  TGI: 10.1 µM
A498 renal
  GI50: 2.23 µM
  TGI: 4.59 µM
IGROV1 ovarian
  GI50: 2.43 µM
  TGI: 6.3 µM

From PubChem BioAssay (NCI)
